Experimental data taken from WO2020032435A1 (priority 2018, dated 2019).

Assays:
VEGF [1] = assay: VEGF concentration in culture medium of human dermal papilla cells, ELISA; assay type: cell-based; settings: Human dermal papilla cell, 24 hours, DMSO negative control, read-out: increase in VEGF concentration
IGF-1 = IGF-1 concentration in culture medium of human dermal papilla cells, ELISA; assay type: cell-based; settings: Human dermal papilla cell, 24 hours, DMSO negative control, read-out: increase in IGF-1 concentration
cAMP = cAMP concentration in human dermal papilla cells, ELISA; assay type: cell-based; settings: Human dermal papilla cell, 24 hours, DMSO negative control, read-out: increase in cAMP concentration
LEF = LEF mRNA expression in human dermal papilla cells, RT-PCR; assay type: cell-based; settings: Human dermal papilla cell, 24 hours, read-out: increase in mRNA expression of LEF
cycD = assay: Cyclin D mRNA expression in human dermal papilla cells, RT-PCR; assay type: cell-based; settings: Human dermal papilla cell, 24 hours, read-out: increase in mRNA expression of cycD
VEGF [2] = assay: VEGF mRNA expression in human dermal papilla cells, RT-PCR; assay type: cell-based; settings: Human dermal papilla cell, 24 hours, read-out: increase in mRNA expression of VEGF
IGF = assay: IGF-1 mRNA expression in human dermal papilla cells, RT-PCR; assay type: cell-based; settings: Human dermal papilla cell, 24 hours, read-out: increase in mRNA expression of IGF
[3] = system: human dermal papilla cells; assay: Cell proliferation of human dermal papilla cells, MTT assay; settings: 24 h, read-out: proliferation rate increase

Question: How did the activation at 20 µM (VEGF [1]) turn out when `COc1ccc2ccccc2c1` [Yarayara, 2-methoxynaphthalene] was run?
Answer: The activation at 20 µM was 30%.

Question: What about the activation at 20 µM (IGF-1) of the same compound?
Answer: Its activation at 20 µM is 22%.

Question: What about the activation at 20 µM (cAMP) of the same compound?
Answer: Its activation at 20 µM is 47%.

Question: What about the activation at 20 µM (LEF) of the same compound?
Answer: Its activation at 20 µM is 340%.

Question: And the activation at 20 µM (cycD)?
Answer: The activation at 20 µM was 262%.

Question: And the activation at 20 µM (VEGF [2])?
Answer: The activation at 20 µM was 274%.

Question: What about the activation at 20 µM (IGF) of the same compound?
Answer: The activation at 20 µM was 270%.

Question: And the activation at 10 µM [3]?
Answer: Its activation at 10 µM is 10.6%.

Question: And the activation at 20 µM [3]?
Answer: The activation at 20 µM was 37%.

Question: What about the activation at 50 µM [3] of the same compound?
Answer: Its activation at 50 µM is 28%.
